Laboratory results taken from ChEMBL document CHEMBL3867477 (Bioorg Med Chem Lett, 2016).
Converted amounts (≈) assume the structure as drawn.

Key:
[1] = Half life in rat at 2 mg/kg, iv or 10 mg/kg, po; assay type: ADME, organism-based; conditions: in vivo
CHO = assay: Selectivity index, ratio of Ki for human OX2 receptor expressed on CHO cell membrane to Ki for Ile408-Val variant human OX1 receptor expressed on CHO cell membrane; assay type: cell-based
[2] = Clearance in rat at 2 mg/kg, iv; assay type: ADME, organism-based; conditions: in vivo
Rattus norvegicus [3] = assay: Displacement of (2S)-N-(2-phenylphenyl)-1-[2-[1-(tritritiomethyl)benzimidazol-2-yl]sulfanylacetyl]pyrrolidine-2-carboxamide from human OX1R expressed in transgenic rat brain administered orally; assay type: functional
[4] = Aqueous solubility of the compound at pH 2; assay type: physicochemical; conditions: aqueous medium
[5] = Half life in rhesus monkey at 2 mg/kg, iv or 10 mg/kg, po; assay type: ADME, organism-based, Macaca mulatta; conditions: in vivo
[6] = AUC in rat at 10 mg/kg, po; assay type: ADME, organism-based; conditions: in vivo
[7] = Oral bioavailability in rhesus monkey at 30 mg/kg; assay type: ADME, organism-based, Macaca mulatta; conditions: in vivo
[8] = target: T1, Orexin/Hypocretin receptor type 1 (Rattus norvegicus, UniProt P56718); assay: Antagonist activity at rat OX1 receptor assessed as inhibition of Ala-6,12 orexin-A-induced calcium increase preincubated for 5 mins prior to Ala-6,12 orexin-A addition measured at 1 sec intervals for 1 min by Fluo-4AM dye-based FLIPR assay; assay type: functional
T1 sequence (P56718 whole entry): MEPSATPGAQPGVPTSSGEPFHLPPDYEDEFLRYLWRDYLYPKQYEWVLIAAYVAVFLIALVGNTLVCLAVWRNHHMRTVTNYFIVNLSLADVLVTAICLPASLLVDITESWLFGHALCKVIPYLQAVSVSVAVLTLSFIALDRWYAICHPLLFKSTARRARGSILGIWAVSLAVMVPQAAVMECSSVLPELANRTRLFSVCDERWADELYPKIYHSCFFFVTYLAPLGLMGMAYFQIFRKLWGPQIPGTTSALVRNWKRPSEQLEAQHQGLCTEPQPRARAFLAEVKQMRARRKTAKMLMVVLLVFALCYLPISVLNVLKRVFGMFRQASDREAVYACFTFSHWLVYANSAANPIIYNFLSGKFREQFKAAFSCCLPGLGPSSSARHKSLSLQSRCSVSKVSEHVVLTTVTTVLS

[9] = target: T2, Orexin/Hypocretin receptor type 1 (Homo sapiens, UniProt O43613); assay: Binding affinity to OX1 receptor (unknown origin)
T2 sequence (O43613 whole entry): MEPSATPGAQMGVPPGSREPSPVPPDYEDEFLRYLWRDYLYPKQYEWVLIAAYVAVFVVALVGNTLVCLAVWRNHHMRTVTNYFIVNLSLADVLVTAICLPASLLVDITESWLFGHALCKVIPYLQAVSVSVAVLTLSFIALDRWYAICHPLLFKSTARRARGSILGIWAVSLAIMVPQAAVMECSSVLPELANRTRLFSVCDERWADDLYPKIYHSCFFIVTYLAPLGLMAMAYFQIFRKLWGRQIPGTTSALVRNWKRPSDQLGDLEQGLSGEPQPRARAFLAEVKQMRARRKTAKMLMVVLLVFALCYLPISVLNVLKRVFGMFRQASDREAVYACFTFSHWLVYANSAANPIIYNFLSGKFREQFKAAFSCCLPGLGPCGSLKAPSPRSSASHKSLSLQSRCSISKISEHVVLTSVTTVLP

[10] = Oral bioavailability in rat at 10 mg/kg; assay type: ADME, organism-based; conditions: in vivo
Orexin receptor type 2 [11] = target: T3, Orexin receptor type 2 (Homo sapiens, UniProt O43614); assay type: functional, cell-based, CHO
T3 sequence (O43614 whole entry): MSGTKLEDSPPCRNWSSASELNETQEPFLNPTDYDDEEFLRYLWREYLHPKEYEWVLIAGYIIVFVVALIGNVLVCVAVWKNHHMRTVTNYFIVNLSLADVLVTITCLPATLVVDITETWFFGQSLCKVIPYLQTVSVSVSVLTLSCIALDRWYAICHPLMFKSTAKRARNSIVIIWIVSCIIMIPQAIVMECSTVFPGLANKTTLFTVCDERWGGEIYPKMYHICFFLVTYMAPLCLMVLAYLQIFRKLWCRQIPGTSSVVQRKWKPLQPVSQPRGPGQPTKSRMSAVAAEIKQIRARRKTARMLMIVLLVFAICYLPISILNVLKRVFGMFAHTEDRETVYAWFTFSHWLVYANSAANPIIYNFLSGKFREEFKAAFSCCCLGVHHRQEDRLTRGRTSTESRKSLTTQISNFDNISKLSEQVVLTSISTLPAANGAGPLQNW
Description: Antagonist activity at human OX2 receptor expressed on CHO cell membrane assessed as inhibition of Ala-6,12 orexin-A-induced calcium increase preincubated for 5 mins prior to Ala-6,12 orexin-A addition measured at 1 sec intervals for 1 min by Fluo-4AM dye-based FLIPR assay

Orexin receptor type 2 [12] = target: T4, Orexin receptor type 2 (Rattus norvegicus, UniProt P56719); assay type: functional
T4 sequence (P56719 whole entry): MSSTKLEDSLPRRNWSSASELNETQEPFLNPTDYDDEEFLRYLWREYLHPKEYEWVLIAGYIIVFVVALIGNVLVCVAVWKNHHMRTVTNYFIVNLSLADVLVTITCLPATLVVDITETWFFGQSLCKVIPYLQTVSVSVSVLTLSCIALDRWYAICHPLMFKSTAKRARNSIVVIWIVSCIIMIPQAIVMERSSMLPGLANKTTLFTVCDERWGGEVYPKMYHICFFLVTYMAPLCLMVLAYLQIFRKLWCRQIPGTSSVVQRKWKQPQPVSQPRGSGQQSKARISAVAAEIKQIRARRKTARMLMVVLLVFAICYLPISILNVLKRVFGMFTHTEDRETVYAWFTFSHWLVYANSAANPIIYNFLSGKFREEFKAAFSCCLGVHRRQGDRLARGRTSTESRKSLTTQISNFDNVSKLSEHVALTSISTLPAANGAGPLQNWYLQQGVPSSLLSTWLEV
Description: Antagonist activity at rat OX2 receptor assessed as inhibition of Ala-6,12 orexin-A-induced calcium increase preincubated for 5 mins prior to Ala-6,12 orexin-A addition measured at 1 sec intervals for 1 min by Fluo-4AM dye-based FLIPR assay

[13] = Clearance in dog at 0.5 mg/kg, iv or 10 mg/kg, po; assay type: ADME, organism-based, Canis lupus familiaris; conditions: in vivo
[14] = AUC in rat at 20 mg/kg, po; assay type: ADME, organism-based; conditions: in vivo
[15] = Protein binding in rhesus monkey plasma; assay type: ADME, cell-free, Macaca mulatta; conditions: read-out: PPB (converted)
[16] = Cmax in rat at 10 mg/kg, po; assay type: ADME, organism-based; parameters: dose 10 mg/kg, route oral; conditions: in vivo
[17] = Intrinsic clearance in human liver microsomes; assay type: ADME; conditions: read-out: CLH
[18] = Half life in dog at 0.5 mg/kg, iv or 10 mg/kg, po; assay type: ADME, organism-based, Canis lupus familiaris; conditions: in vivo
[19] = Intrinsic clearance in dog liver microsomes; assay type: ADME, Canis lupus familiaris; conditions: read-out: CLH
[20] = Oral bioavailability in dog at 3 mg/kg; assay type: ADME, organism-based, Canis lupus familiaris; conditions: in vivo
Orexin receptor type 2 [21] = target: T3, Orexin receptor type 2; assay: Displacement of (2S)-N-(2-pyrrol-1-ylphenyl)-1-[2-[1-(tritritiomethyl)benzimidazol-2-yl]sulfanylacetyl]pyrrolidine-2-carboxamide from human OX2 receptor expressed on CHO cell membrane measured after 3 hrs by TopCount method; assay type: cell membranes
[22] = Aqueous solubility of the compound at pH 7; assay type: physicochemical; conditions: aqueous medium
[23] = target: T5, Orexin/Hypocretin receptor type 1 (Homo sapiens) (UniProt O43613); assay: Binding affinity to OX1 receptor (unknown origin) assessed as association rate constant
T5 sequence (whole entry): T2 sequence (O43613 whole entry)

[24] = Clearance in rhesus monkey at 2 mg/kg, iv or 10 mg/kg, po; assay type: ADME, organism-based, Macaca mulatta; conditions: in vivo
[25] = AUC in rat at 50 mg/kg, po; assay type: ADME, organism-based; conditions: in vivo
[26] = target: T5, Orexin/Hypocretin receptor type 1 (Homo sapiens); assay: Binding affinity to OX1 receptor (unknown origin) assessed as dissociation rate constant
[27] = Displacement of (2S)-N-(2-phenylphenyl)-1-[2-[1-(tritritiomethyl)benzimidazol-2-yl]sulfanylacetyl]pyrrolidine-2-carboxamide from human OX1 receptor Ile408-Val mutant expressed on CHO cell membrane measured after 3 hrs by TopCount method; assay type: cell membranes
[28] = Protein binding in human plasma; assay type: ADME, cell-free; conditions: read-out: PPB (converted)
[29] = Selectivity index, ratio of IC50 for human OX1 receptor to IC50 for rat OX1 receptor
[30] = Cmax in rat at 20 mg/kg, po; assay type: ADME, organism-based; parameters: dose 20 mg/kg, route oral; conditions: in vivo
[31] = Intrinsic clearance in rhesus monkey liver microsomes; assay type: ADME, Macaca mulatta; conditions: read-out: CLH
[32] = Protein binding in dog plasma; assay type: ADME, cell-free, Canis lupus familiaris; conditions: read-out: PPB (converted)
[33] = Protein binding in rat plasma; assay type: ADME, cell-free; conditions: read-out: PPB (converted)
[34] = Apparent permeability of the compound; assay type: ADME; conditions: not told
[35] = Intrinsic clearance in rat liver microsomes; assay type: ADME; conditions: read-out: CLH
Rattus norvegicus [36] = species: Rattus norvegicus; assay: Selectivity index, ratio of IC50 for rat OX2 receptor to IC50 for rat OX1 receptor
[37] = Cmax in rat at 50 mg/kg, po; assay type: ADME, organism-based; parameters: dose 50 mg/kg, route oral; conditions: in vivo
[38] = Antagonist activity at human OX1 receptor Ile408-Val mutant expressed on CHO cell membrane assessed as inhibition of Ala-6,12 orexin-A-induced calcium increase preincubated for 5 mins prior to Ala-6,12 orexin-A addition measured at 1 sec intervals for 1 min by Fluo-4AM dye-based FLIPR assay

For `O=C(c1cccn2cncc12)N1CCC(F)(F)[C@@H](Oc2ccc3ccccc3n2)C1`, which half-life [1] is on record?
The half-life was 168 min.

What about the Ratio Ki (CHO) of the same compound?
Its Ratio Ki is 561.

What about the clearance [2] of the same compound?
The clearance was 75 mL/min/kg.

What about the Occ50 (Rattus norvegicus [3]) of the same compound?
Its Occ50 is 0.032 µM.

What about the solubility [4] of the same compound?
Its solubility is 194 µM (≈ 79.2 µg/mL).

And the half-life [5]?
The half-life was 48 min.

And the AUC [6]?
Its AUC is 0.77 µM·h.

And the bioavailability [7]?
Its bioavailability is 1%.

And the Ki [8]?
Its Ki is 6800 to 10000 nM.

What about the Kd [9] of the same compound?
The Kd was 0.94 nM.

And the bioavailability [10]?
The bioavailability was 13%.

What about the IC50 (Orexin receptor type 2 [11]) of the same compound?
Its IC50 is > 10000 nM.

And the Ki (Orexin receptor type 2 [12])?
The Ki was > 10000 nM.

What about the clearance [13] of the same compound?
Its clearance is 38 mL/min/kg.

What about the AUC [14] of the same compound?
Its AUC is 8.3 µM·h.

What about the fraction unbound [15] of the same compound?
Its fraction unbound is 0.06.

And the Cmax [16]?
Its Cmax is 0.73 µM.

And the CLint scaled [17]?
The CLint scaled was 62 mL/min/kg.

And the half-life [18]?
Its half-life is 30 min.

And the CLint scaled [19]?
Its CLint scaled is 485 mL/min/kg.

What about the bioavailability [20] of the same compound?
The bioavailability was 37%.

And the Ki (Orexin receptor type 2 [21])?
Its Ki is 1010 nM.

And the solubility [22]?
The solubility was 171 µM (≈ 69.8 µg/mL).

And the K [23]?
Its K is 1.08 ×10⁸ /M/s.

And the clearance [24]?
Its clearance is 33 mL/min/kg.

What about the AUC [25] of the same compound?
Its AUC is 153 µM·h.

What about the K [26] of the same compound?
Its K is 0.102 s⁻¹.

And the Ki [27]?
Its Ki is 1.8 nM.

What about the fraction unbound [28] of the same compound?
Its fraction unbound is 0.11.

What about the Ratio IC50 [29] of the same compound?
The Ratio IC50 was 3 to 4.

And the Cmax [30]?
Its Cmax is 5 µM.

And the CLint scaled [31]?
Its CLint scaled is 775 mL/min/kg.

What about the fraction unbound [32] of the same compound?
Its fraction unbound is 0.08.

What about the fraction unbound [33] of the same compound?
The fraction unbound was 0.08.

What about the Papp [34] of the same compound?
Its Papp is 35 ×10⁻⁶ cm/s.

What about the CLint scaled [35] of the same compound?
Its CLint scaled is 320 mL/min/kg.

What about the Ratio IC50 (Rattus norvegicus [36]) of the same compound?
Its Ratio IC50 is > 625.

And the Cmax [37]?
The Cmax was 24 µM.

And the IC50 [38]?
The IC50 was 30 nM.
